Like-named read-outs stand apart in the source and are kept apart here.
How the values were obtained:
Recombinant CK2 (2α2β) = biological target: T1, Recombinant CK2 (2α2β) (Homo sapiens, UniProt P68400); test: [γ-32P]ATP phosphorylation of c-Jun, SDS-PAGE autoradiography, densitometry; assay type: biochemical
T1 construct: gene CSNK2A1; commercial recombinant holoenzyme (Calbiochem), alpha2beta2 tetramer; with Casein kinase II subunit beta
Excerpt: [γ-32P]ATP phosphorylation of c-Jun, SDS-PAGE autoradiography, densitometry on Recombinant CK2 (2α2β)

recombinant PKD = biological target: T2, recombinant PKD (Homo sapiens, UniProt Q15139); test: as above; assay type: biochemical
T2 construct: gene PRKD1; commercial recombinant kinase (Upstate)
T2 sequence (Q15139 1-912): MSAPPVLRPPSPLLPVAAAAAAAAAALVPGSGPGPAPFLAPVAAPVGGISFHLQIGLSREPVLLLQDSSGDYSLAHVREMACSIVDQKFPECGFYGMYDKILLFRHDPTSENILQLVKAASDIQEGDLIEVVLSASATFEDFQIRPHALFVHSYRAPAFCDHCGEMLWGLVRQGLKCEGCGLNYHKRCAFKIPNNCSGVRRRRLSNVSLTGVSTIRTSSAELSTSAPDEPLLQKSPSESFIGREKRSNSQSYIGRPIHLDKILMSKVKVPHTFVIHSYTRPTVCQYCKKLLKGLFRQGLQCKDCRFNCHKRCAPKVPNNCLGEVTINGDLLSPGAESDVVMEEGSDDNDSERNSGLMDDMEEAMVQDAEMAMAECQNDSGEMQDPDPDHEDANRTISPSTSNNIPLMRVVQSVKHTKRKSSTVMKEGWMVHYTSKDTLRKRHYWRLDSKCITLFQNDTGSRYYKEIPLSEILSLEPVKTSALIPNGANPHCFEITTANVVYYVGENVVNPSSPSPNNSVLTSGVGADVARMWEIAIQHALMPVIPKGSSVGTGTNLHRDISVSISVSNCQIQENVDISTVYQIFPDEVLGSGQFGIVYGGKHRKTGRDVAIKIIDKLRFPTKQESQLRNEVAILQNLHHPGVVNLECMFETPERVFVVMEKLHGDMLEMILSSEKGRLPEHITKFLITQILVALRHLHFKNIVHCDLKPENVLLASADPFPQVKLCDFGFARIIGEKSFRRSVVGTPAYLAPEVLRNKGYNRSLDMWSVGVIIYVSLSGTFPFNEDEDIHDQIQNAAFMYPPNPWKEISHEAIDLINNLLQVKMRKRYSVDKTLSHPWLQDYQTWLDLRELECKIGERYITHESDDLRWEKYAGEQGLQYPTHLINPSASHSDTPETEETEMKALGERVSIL
Excerpt: [γ-32P]ATP phosphorylation of c-Jun, SDS-PAGE autoradiography, densitometry on recombinant PKD

T1 sequence (P68400 whole entry): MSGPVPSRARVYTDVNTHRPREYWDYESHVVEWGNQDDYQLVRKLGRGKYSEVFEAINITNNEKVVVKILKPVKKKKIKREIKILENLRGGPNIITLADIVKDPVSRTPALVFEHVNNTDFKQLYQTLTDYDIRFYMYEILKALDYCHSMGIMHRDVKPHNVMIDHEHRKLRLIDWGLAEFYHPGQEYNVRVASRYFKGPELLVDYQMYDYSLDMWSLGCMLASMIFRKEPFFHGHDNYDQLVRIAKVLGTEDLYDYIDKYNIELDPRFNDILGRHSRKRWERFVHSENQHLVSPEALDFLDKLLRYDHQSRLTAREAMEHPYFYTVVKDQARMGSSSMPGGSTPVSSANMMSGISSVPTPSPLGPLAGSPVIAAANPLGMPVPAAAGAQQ
T1 sequence (P67870 2-215 partner): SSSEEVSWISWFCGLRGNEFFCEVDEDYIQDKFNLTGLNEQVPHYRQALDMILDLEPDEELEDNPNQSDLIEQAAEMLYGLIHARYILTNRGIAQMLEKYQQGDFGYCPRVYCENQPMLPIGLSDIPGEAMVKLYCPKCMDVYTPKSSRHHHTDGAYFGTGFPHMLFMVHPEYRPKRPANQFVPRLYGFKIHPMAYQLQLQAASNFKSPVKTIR

SMILES | IC50 (Recombinant CK2 (2α2β); read-out: IC50 CK2) | IC50 (recombinant PKD; read-out: IC50 PKD) | IC50 (Recombinant CK2 (2α2β)) | IC50 (recombinant PKD)
Oc1cc(O)cc(/C=C/c2ccc(O)c(O)c2)c1 [Piceatannol] | 2.5 µM | 0.5 µM | – | –
O=C1C=CC(=O)c2c1c(O)c1ccccc1c2O [BTB14431, 9,10-dihydroxy-1,4-dihydroanthracene-1,4-dione] | – | – | 6.4 µM | 68.9 µM
COc1ccc2c(=O)c3ccccc3n(C)c2c1 [JFD02836, 3-methoxy-10-methyl-9,10-dihydro-9-acridinone] | – | – | 19.9 µM | 39.7 µM
O=C1C(=CO)c2ccccc2-c2ccccc21 [JFD03665, 10-(hydroxymethylene)phenanthren-9(10H)-one] | – | – | 5.9 µM | 155 µM
Nc1c2c(nc3cccc(F)c13)OCCC2 [SEW04213, 6-fluoro-3,4-dihydro-2H-pyrano [2,3-b]quinolin-5-amine] | – | – | 37.9 µM | 186 µM
O=C(NN=Cc1cc(Cl)cc(Cl)c1O)c1ccccn1 [BTB00363, 2-Pyridinecarboxylic acid, [(3,5-dichloro-2-hydroxyphenyl)methylene]hydrazide] | 333 µM | 118 µM | – | –
